“And” between values parts separate entries of the source, which are not always exact repeats. Equal entries are not always repeated. Where two headings read alike, the source gives them in different places.
Assays:
SHP1 [1] = target: T1, SHP1 (Homo sapiens, UniProt P29350); test: IC50 after 10-min/60-min preincubation, DiFMUP phosphatase assay; format: biochemical
T1 construct: SHP1, residues 245-543; made in house; host or cells: E. coli BL21(DE3)
Source text: The PTP‐catalyzed reaction involves a nucleophilic attack by the conserved active site Cys side chain on the phosphorus atom of phosphotyrosine in the substrate.^[ [53] ^] As such, the PTPs could serve as prime targets for covalent inhibition. Previously described activity‐based probes or covalent ligands for the PTPs are either phosphotyrosine isosteres or thiol‐reactive compounds that covalently modify the active site residues (including the catalytic Cys) and lack sufficient isozyme specificity.^[ [54], [55], [56], [57], [58], [59], [60], [61] ^] Inspired by the resurgence in covalent inhibitors for difficult drug targets, we set out to discover covalent SHP1 inhibitors by screening for electrophilic fragments that bind covalently to SHP1. This strategy is increasingly utilized to identify novel ligands for a target of interest.^[ [47], [62], [63] ^] We assembled a library of 4600 Cys reactive molecules from the Enamine covalent fragment collections containing 49.0% acrylamide, 38.1% chloroacetamide, 5.15% chloromethylketone, 5.20% activated nitrile, 2.10% epoxide, and 0.53% disulfide (Figure S1A). We carried out a high‐throughput biochemical fragment screening of this curated commercially available library against the SHP1 catalytic domain (residues 245–543). Each fragment (500 µM) was incubated with SHP1 (500 nM) for 30 min at room temperature before diluting the reaction 5.5‐fold with 24.45 mM para‐nitrophenyl phosphate (pNPP) to measure the residual PTP activity. This concentration of substrate was chosen to out‐compete any remaining fragment to reduce the inactivation of SHP1 during the enzymatic hydrolysis of pNPP. After a 2‐min incubation at 25 °C, the reaction was quenched by the addition of 5N NaOH, and the production of para‐nitrophenol was determined by absorbance at 405 nm. This assay format afforded a Z’‐factor of 0.70 (Figure S1B), indicating a robust screen to reliably identify hit molecules. To enhance the probability of discovering covalent ligands with inherent preference for SHP1, we also counter‐screened the same library against SHP2, the closest homolog of SHP1, and two other widely studied PTPs, PTP1B and PTPN22 (also called LYP). […] Among these, 31 were repurchased based on their observed preference for SHP1 and structural diversity, 11 of which were confirmed as potential covalent inhibitors for SHP1 based on the time dependency of their half‐maximal inhibition concentration (IC50) values determined with a 10‐min and 60‐min preincubation time, respectively (Table 1).
To further confirm the time-dependent inhibition and determine the IC50 of acquired hits, repurchased compounds from Enamine were serially diluted in a 96-well plate, followed by the addition of proteins at 200 nM. After 10-minute and 60-minute preincubation, 2 µL of the mixture was transferred into 100 µM 6,8-Difluoro-4-Methylumbelliferyl Phosphate (DiFMUP, Invitrogen, cat# D6567) at a final volume of 200 µL. The reaction was allowed to proceed for 5 minutes and quenched by the addition of 40 µl of a 160 µM solution of bpV(Phen) (Sigma-Aldrich, cat# SML0889). The fluorescence signal was measured using a CLARIOstar Plus Microplate Spectrophotometer (BMG Labtech) using excitation and emission wavelengths of 340 nm and 450 nm, respectively. Data were fitted using Prism GraphPad 10.1.1.

SHP1 [2] = target: T1, SHP1; test: Time-course pNPP progress-curve inactivation kinetics; format: biochemical; conditions: for k inact/K I for SHP1 inactivation: time-course pNPP assay
Source text: Covalent inhibitors generally inactivate their targets through a two‐step process, starting with a reversible binding event (characterized by the dissociation constant K I) and followed by covalent bond formation (represented by the first‐order rate constant of inactivation k inact). Although IC50 values are often utilized to assess the potency of covalent inhibitors, the second‐order rate constant k inact/K I is preferred because it provides a measure of covalent inhibition in a time‐ and dose‐independent manner.^[ [60], [62], [67], [68] ^] Because k inact/K I measurement can be time and labor‐intensive, we developed an efficient method to determine the observed first‐order rate constant (k obs) from the analysis of a progress curve in the presence of an inhibitor.^[ [69] ^] The k obs value is then plotted as a function of inhibitor concentration to obtain the kinetic parameters k inact, K I, and k inact/K I.^[ [70] ^] […] To verify SHP1 covalent modification by Z57117023, we ascertained SHP1 covalent adduct formation by intact protein liquid chromatography‐mass spectrometry (LC‐MS).^[ [58] ^] A single SHP1‐Z57117023 adduct was observed when SHP1 was incubated with Z57117023, with a mass shift of 295.21 Da (calculated 295.54 Da) (Figure 1e), consistent with the loss of a chlorine atom from Z57117023.
Phosphatase Activity Assay: To determine the inhibition kinetics of acquired hits, repurchased compounds from Enamine were serially diluted in a 96-well plate followed by the addition of pNPP at Km concentrations of corresponding proteins. The reaction was initiated by the addition of 20 nM proteins, and the reaction progression was monitored at OD405 using a CLARIOstar Plus Microplate Spectrophotometer (BMG Labtech) for 60 minutes. After background subtraction, the obtained progress curves were fitted to the equation A = v0(1-e^-kt)/k, where A is the absorbance at 405 nm, v0 is the initial rate, k is the kobs of the corresponding reaction. The acquired kobs was then plotted against inhibitor concentrations, which were fitted to kobs = kinact[I]/(KI+[I]), where kinact is the maximum rate of inactivation, [I] is the inhibitor concentration, and KI is the reversible binding affinity of the compound to the protein. Data were fitted using Prism GraphPad 10.1.1.

[3] = Intrinsic reactivity toward GSH, LC-MS; format: physicochemical
Procedure: (§1) The moderate half‐life in the presence of excessive GSH implied the low intrinsic reactivity of Z57117023. e) SHP1 protein was incubated with or without Z57117023 in 3,3‐dimethylglutarate buffer (pH = 7.0) for 60 min at room temperature to form a covalent adduct.
(§2) The area under the curve (AUC) of each measurement was normalized to 10 µM compounds to calculate the percent remaining. Data were fitted using Prism GraphPad 10.1.1.

GSH = test: Intrinsic reactivity toward GSH, LC-MS; format: physicochemical; conditions: GSH in 3,3-dimethylglutarate (DMG) buffer, LC-MS
Procedure: as §1, §2

SHP1 [4] = target: T1, SHP1; test: Intact protein LC-MS covalent adduct formation; format: binding; conditions: 60 min, room temperature, pH 7.0; single adduct
Procedure: as §1
Covalent inhibitors generally inactivate their targets through a two‐step process, starting with a reversible binding event (characterized by the dissociation constant K I) and followed by covalent bond formation (represented by the first‐order rate constant of inactivation k inact). Although IC50 values are often utilized to assess the potency of covalent inhibitors, the second‐order rate constant k inact/K I is preferred because it provides a measure of covalent inhibition in a time‐ and dose‐independent manner.^[ [60], [62], [67], [68] ^] […] A single SHP1‐Z57117023 adduct was observed when SHP1 was incubated with Z57117023, with a mass shift of 295.21 Da (calculated 295.54 Da) (Figure 1e), consistent with the loss of a chlorine atom from Z57117023.
The mixtures were centrifuged to remove the unfolded SHP1 proteins, and the supernatants were spiked with a control protein CDC14A, followed by loading into SDS‐PAGE gels to quantify the relative SHP1 level.

[5] = pH 7, 100-fold excess GSH, pH 7.0, room temperature, read-out: half-life (t1/2) toward excess GSH (converted)

T1 sequence (P29350 245-543): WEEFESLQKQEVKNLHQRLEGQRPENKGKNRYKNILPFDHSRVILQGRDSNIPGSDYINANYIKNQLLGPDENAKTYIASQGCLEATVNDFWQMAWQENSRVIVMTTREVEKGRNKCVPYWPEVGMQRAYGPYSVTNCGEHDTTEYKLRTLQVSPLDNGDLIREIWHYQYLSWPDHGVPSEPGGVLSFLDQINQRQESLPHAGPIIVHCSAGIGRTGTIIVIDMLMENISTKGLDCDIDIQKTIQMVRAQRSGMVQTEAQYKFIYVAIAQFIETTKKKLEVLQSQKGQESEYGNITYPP

IC50 (SHP1 [1]; 10-min preincubation, purchased hits, read-out: SHP1 IC50, 10 min) [µM] | IC50 (SHP1 [1]; 60-min preincubation, purchased hits, read-out: SHP1 IC50, 60 min) [µM] | selectivity for SHP1 over SHP2, PTP1B, and PTPN22 (SHP1 [1]; from IC50 values) [fold] | IC50 (SHP1 [1]; resynthesized compound, 10 min preincubation, read-out: SHP1 IC50, 10 min preincubation) [µM] | IC50 (SHP1 [1]; resynthesized compound, 60 min preincubation, read-out: SHP1 IC50, 60 min preincubation) [µM] | reactivity toward GSH (in words) [3] | half-life at 10 µM (GSH; pH 7, 100-fold excess GSH, 3,3-dimethylglutarate buffer pH 7.0, room temperature, read-out: half-life with GSH) [h] | Compound | selectivity over a large panel of mammalian PTPs (SHP1 [1]; 60-min preincubation IC50 values, incl. SHP2) [fold] | IC50 (SHP1 [1]; 60-min preincubation, read-out: 60 min IC50, SHP1) [µM] | k inact (SHP1 [2]; pH 7.0, room temperature) [s⁻¹] | KI (inactivation) (SHP1 [2]; pH 7.0, room temperature, read-out: K I) [µM] | k inact/K I for SHP1 inactivation (SHP1 [2]) [M⁻¹ s⁻¹] | k inact/K i fold higher than that of Z57117023 (SHP1 [2]; vs Z57117023) [fold] | fold less reactive toward GSH than Z57117023 ([3]; vs Z57117023) [fold] | half-life at 10 µM (GSH; [5]) [h] | mass shift of SHP1 covalent adduct (SHP1 [4])
 |  |  |  |  |  |  | N#Cc1ccsc1NS(=O)(=O)c1ccc(NC(=O)CCl)cc1 [M029, 2-Chloro-N-(4-(N-(3-cyanothiophen-2-yl)sulfamoyl)phenyl)acetamide] | > 22.4 | 2.6 ± 0.5 | 0.0038 ± 0.008 | 76.7 ± 12.5 | 49.55 | 13 | 5 | 34.3 | 319.31 ± 1.14 Da and 319.31 Da
99.1 | 17.5 | > 11 | 118 ± 8.3 | 25.2 ± 1.6 | minimal reactivity toward GSH | 7.07 ± 0.918 | O=C(CCl)Nc1ccc(S(=O)(=O)Nc2nccs2)cc1 [Z57117023, 2-chloro-N-(4-(N-(thiazol-2-yl)sulfamoyl)phenyl)acetamide] |  |  |  |  | 3.792 |  |  | ~7.1 | 295.21 Da

— publication PMC12833730, “Discovery of a First‐in‐Class Covalent Allosteric SHP1 Inhibitor with Immunotherapeutic Activity” (Angewandte Chemie (International Ed. in English), 2025)
